From ChEMBL document CHEMBL1201862, “PubChem BioAssay data set” (2004)
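Following 48 hours of exposure in 96-well plates, responses at five concentrations were used to interpolate endpoints linearly. Abbreviation: GI50, concentration required for 50% inhibition of growth.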 Activity calls are given as the source filed them. Rule as the data show it: active = GI50 up to about 1.1 µM and inactive = higher.

What was measured:
Experiment in all cases: NCI anticancer screen, dose series, 48 h
CCRF-CEM = tested on: CCRF-CEM
EKVX = tested on: EKVX
HCT-15 = tested on: HCT-15
HL-60 = tested on: HL-60
HT-29 = tested on: HT-29
K562 = tested on: K562
LOX IMVI = tested on: LOX IMVI
NCI-H23 = tested on: NCI-H23
OVCAR-3 = tested on: OVCAR-3
OVCAR-5 = tested on: OVCAR-5
SF-268 = tested on: SF-268
SF-295 = tested on: SF-295
SF-539 = tested on: SF-539
SK-MEL-28 = tested on: SK-MEL-28
SK-MEL-5 = tested on: SK-MEL-5
SN12C = tested on: SN12C
SW-620 = tested on: SW-620
U-251 = tested on: U-251
UO-31 = tested on: UO-31
CAKI-1 = tested on: CAKI-1

SMILES | GI50 (CCRF-CEM) | GI50 (EKVX) | GI50 (HCT-15) [µM] | GI50 (HL-60) | GI50 (HT-29) | GI50 (K562) | GI50 (LOX IMVI) | GI50 (NCI-H23) | GI50 (OVCAR-3) | GI50 (OVCAR-5) | GI50 (SF-268) | GI50 (SF-295) | GI50 (SF-539) | GI50 (SK-MEL-28) | GI50 (SK-MEL-5) | GI50 (SN12C) | GI50 (SW-620) | GI50 (U-251) | GI50 (UO-31) | GI50 (CAKI-1)
CC(=O)NC1CC(C(C)(C)NC(C)=O)CC=C1C (centres undefined) | > 100 µM (inactive) | > 100 µM (inactive) | > 100 | > 100 µM (inactive) | > 100 µM (inactive) | > 100 µM (inactive) | > 100 µM (inactive) | > 100 µM (inactive) | > 100 µM (inactive) | > 100 µM (inactive) | > 100 µM (inactive) | > 100 µM (inactive) | > 100 µM (inactive) | > 100 µM (inactive) | > 100 µM (inactive) | > 100 µM (inactive) | > 100 µM (inactive) | > 100 µM (inactive) | > 100 µM (inactive) | 
C=C1CC(OC)(C(O)C(=O)N[C@H]2OCO[C@H]3C2O[C@H](C[C@@H](CO)OC)C(C)(C)C3OC)O[C@H](C)[C@@H]1C (some centres undefined) | 0.0125 µM (active) |  | < 0.00931 | < 0.00931 µM (active) | < 0.00931 µM (active) | < 0.00931 µM (active) | < 0.00931 µM (active) | < 0.00931 µM (active) | < 0.00931 µM (active) | < 0.00931 µM (active) | < 0.00931 µM (active) | < 0.00931 µM (active) | < 0.00931 µM (active) | < 0.00931 µM (active) | < 0.00931 µM (active) | < 0.00931 µM (active) | < 0.00931 µM (active) | < 0.00931 µM (active) | < 0.00931 µM (active) | < 0.00931 µM (active)
O=C(Nc1ccc([N+](=O)[O-])cc1[N+](=O)[O-])C(=O)C(C(=O)c1ccc2ccccc2c1)C1OC(=O)c2ccccc21 (centres undefined) | 9.51 µM (inactive) | 15.5 µM (inactive) | 15.9 | 12.3 µM (inactive) | 16.7 µM (inactive) | 14 µM (inactive) | 16.7 µM (inactive) | 7.29 µM (inactive) |  | 20.2 µM (inactive) | 8.89 µM (inactive) | 13.5 µM (inactive) | 4.5 µM (inactive) | 20 µM (inactive) | 15.3 µM (inactive) | 17.8 µM (inactive) | 13.2 µM (inactive) | 4.33 µM (inactive) | 14 µM (inactive) | 21.7 µM (inactive)
O=C(Nc1ccc(F)cc1)c1cc2ccc(O)cc2o/c1=N\c1ccccc1F | 17 µM (inactive) | 13.5 µM (inactive) | 18.9 | 18.6 µM (inactive) | > 100 µM (inactive) | 11.1 µM (inactive) | 19.4 µM (inactive) | 1.62 µM (inactive) | 27.9 µM (inactive) | 29.1 µM (inactive) | 29.1 µM (inactive) | 30.7 µM (inactive) | 42.7 µM (inactive) | 32.1 µM (inactive) | 10.7 µM (inactive) | 51.8 µM (inactive) | 34.2 µM (inactive) | 19.9 µM (inactive) |  | 33.5 µM (inactive)
O=C(/C=C/CC(O)(c1ccccc1)c1ccccc1)Nc1ccccc1Cl | > 100 µM (inactive) | > 100 µM (inactive) | > 100 | > 100 µM (inactive) | > 100 µM (inactive) | > 100 µM (inactive) |  | > 100 µM (inactive) | > 100 µM (inactive) | > 100 µM (inactive) | > 100 µM (inactive) | > 100 µM (inactive) |  | > 100 µM (inactive) | > 100 µM (inactive) | > 100 µM (inactive) | > 100 µM (inactive) | > 100 µM (inactive) | > 100 µM (inactive) | > 100 µM (inactive)
O=C1C=CC2(O[C@@H](Cc3ccccc3)[C@H](Cc3ccccc3)O2)C(SC(=O)c2ccccc2)C1 (some centres undefined) | 0.208 µM (active) |  | 0.298 | 1.18 µM (inactive) | 1.64 µM (inactive) | 1.64 µM (inactive) | 0.38 µM (active) | 1.69 µM (inactive) | 0.594 µM (active) | 0.439 µM (active) | 0.904 µM (active) | 1.95 µM (inactive) | 1.66 µM (inactive) | 1.81 µM (inactive) | 1.66 µM (inactive) | 1.62 µM (inactive) | 0.231 µM (active) | 1.3 µM (inactive) | 0.586 µM (active) | 1.26 µM (inactive)
O=C(CCC(=O)Nc1ccc(Cl)c(Cl)c1)CC(=O)c1ccc(Br)cc1 | > 100 µM (inactive) | > 100 µM (inactive) | 40.5 |  | > 100 µM (inactive) | 47.8 µM (inactive) | > 100 µM (inactive) | > 100 µM (inactive) | > 100 µM (inactive) | > 100 µM (inactive) | > 100 µM (inactive) |  | > 100 µM (inactive) | > 100 µM (inactive) | > 100 µM (inactive) | > 100 µM (inactive) | > 100 µM (inactive) | > 100 µM (inactive) | > 100 µM (inactive) | > 100 µM (inactive)
Nc1c(C(=O)Nc2ccc(C3=NCCN3)cc2)cccc1C(=O)Nc1ccc(C2=NCCN2)cc1 | > 100 µM (inactive) |  | > 100 | > 100 µM (inactive) | > 100 µM (inactive) | > 100 µM (inactive) | > 100 µM (inactive) | > 100 µM (inactive) | > 100 µM (inactive) | > 100 µM (inactive) | > 100 µM (inactive) | > 100 µM (inactive) | > 100 µM (inactive) | > 100 µM (inactive) | > 100 µM (inactive) | > 88.1 µM (inactive) | > 100 µM (inactive) | 53.5 µM (inactive) | > 100 µM (inactive) | > 100 µM (inactive)
c1ccc(CN2CCC3(CC2)SSC2(CCN(Cc4ccccc4)CC2)SS3)cc1 |  | 12.9 µM (inactive) | > 100 |  | 27.2 µM (inactive) | > 100 µM (inactive) | > 100 µM (inactive) | 79.1 µM (inactive) | > 100 µM (inactive) | > 100 µM (inactive) | > 100 µM (inactive) | > 100 µM (inactive) | > 100 µM (inactive) | 34.9 µM (inactive) | 57.3 µM (inactive) | > 100 µM (inactive) | 5.48 µM (inactive) | > 100 µM (inactive) | > 100 µM (inactive) | > 100 µM (inactive)
Cc1cc2nc3c(C)c4ccccc4c(C)n3c2cc1C | 3.84 µM (inactive) | 5 µM (inactive) | 1.97 | 3.22 µM (inactive) | 2.2 µM (inactive) | 5.21 µM (inactive) | 0.857 µM (active) | 2.67 µM (inactive) | 1.95 µM (inactive) | 2.48 µM (inactive) | 3.85 µM (inactive) | 2.59 µM (inactive) | 1.56 µM (inactive) | 3.27 µM (inactive) | 2.26 µM (inactive) | 2.07 µM (inactive) | 2.49 µM (inactive) | 3.33 µM (inactive) |  | 2.94 µM (inactive)
CN(c1ccccc1)c1c(-c2ccccc2)c(=O)oc2c1ccc1occc12 | > 100 µM (inactive) | > 100 µM (inactive) | > 88.5 | 39.7 µM (inactive) | > 95.7 µM (inactive) | > 100 µM (inactive) | > 100 µM (inactive) | > 100 µM (inactive) | > 100 µM (inactive) |  | > 100 µM (inactive) | > 100 µM (inactive) | > 100 µM (inactive) | > 100 µM (inactive) | > 100 µM (inactive) | > 100 µM (inactive) | > 100 µM (inactive) | > 100 µM (inactive) | > 100 µM (inactive) | 36.2 µM (inactive)
Nc1nc(N)c2c(CCc3ccc(C(=O)N[C@@H](CCC(=O)O)C(=O)O)cc3)ccnc2n1 |  | > 100 µM (inactive) | < 0.0232 | < 0.01 µM (active) | < 0.0294 µM (active) | < 0.01 µM (active) | < 0.01 µM (active) | < 0.0308 µM (active) | 0.0365 µM (active) |  | 0.0308 µM (active) | 0.148 µM (active) | < 0.0145 µM (active) | > 88.9 µM (inactive) | 0.0855 µM (active) | < 0.0297 µM (active) |  |  | 0.0164 µM (active) | < 0.0116 µM (active)
Cn1c(=O)nc2n(-c3ccc(Cl)cc3Cl)c3ccccc3nc-2c1=O |  | 5.27 µM (inactive) | 3.05 | 3.18 µM (inactive) | 2.53 µM (inactive) | 3.92 µM (inactive) |  | 3.27 µM (inactive) | 2.1 µM (inactive) | 33.8 µM (inactive) | 25.9 µM (inactive) | 2.33 µM (inactive) | 6.58 µM (inactive) | 11.4 µM (inactive) | 1.41 µM (inactive) |  |  | 5.06 µM (inactive) | 12 µM (inactive) | 3.08 µM (inactive)
COc1ccccc1N1C(Cl)C(=O)C1c1c[nH]c2ccccc12 (centres undefined) | > 100 µM (inactive) | > 100 µM (inactive) |  | > 100 µM (inactive) | > 100 µM (inactive) | > 100 µM (inactive) |  | > 100 µM (inactive) | > 100 µM (inactive) | 13.2 µM (inactive) | > 100 µM (inactive) | > 100 µM (inactive) | > 100 µM (inactive) | > 100 µM (inactive) | > 100 µM (inactive) | > 100 µM (inactive) | > 100 µM (inactive) | > 100 µM (inactive) | > 100 µM (inactive) | 
O=C1CC2(CCC(O)(c3ccco3)C(C(=O)c3ccco3)C2)C(=O)c2ccccc2N1 (centres undefined) | > 10 µM (inactive) | > 100 µM (inactive) | 53.8 | 27.3 µM (inactive) | > 100 µM (inactive) | 50.1 µM (inactive) | 48.6 µM (inactive) | > 100 µM (inactive) | 84.7 µM (inactive) | > 100 µM (inactive) | > 100 µM (inactive) | > 100 µM (inactive) | > 100 µM (inactive) |  | 51.4 µM (inactive) | > 100 µM (inactive) | > 100 µM (inactive) | > 100 µM (inactive) | 24.7 µM (inactive) | > 100 µM (inactive)
